Laboratory results reported in patent publication USRE38330E1, “Preventing and reversing advanced glycosylation endproducts” (Alteon Inc., priority 1995, dated 2003).
Where a name gives a salt, the structure may show the parent alone. Read-outs that look alike come from different tables or passages of the source.

Experiments:
[1] = biological target: T1, AGE-BSA previously crosslinked to the collagen (Bos taurus, UniProt P02769); assay: Sandwich enzyme immunoassay for breaking of AGE moieties from AGE-BSA crosslinked to collagen (AGE breaker assay); assay type: biochemical, bovine; rat; settings: for IC50: AGE breaking, 16 hours 37° C.
T1 construct: Type V BSA (bovine serum albumin); purchased Calbiochem (BSA Type V); Collaborative Biomedical Products (Biocoat rat tail collagen type I plates)
Protocol: The present invention also involves a novel sandwich enzyme immunoassay used to ascertain the ability of test compounds to “break” or reverse already formed advanced glycosylation endproducts by detecting the breaking of AGE (Advanced glycosylation endproduct) moieties from AGE-crosslinked protein. This assay comprises:
a) incubation of AGE-modified bovine serum albumin (AGE-BSA) on collagen-coated wells of microtiter plates for a period of 2-6 hours at a temperature of 37° C.;
b) washing of the wells with PBS-Tween;
c) application of the test compounds to the washed wells of step b;
d) incubation of the test compounds applied to the washed wells for an additional 12-24 hours at a temperature of about 37° C.; and
e) detection of the AGE-breaking using an antibody raised against AGE-ribonuclease or cross-link breaking with an antibody against BSA.
In order to ascertain the ability of the compounds of the instant invention to “break” or reverse already formed advanced glycosylation endproducts, a novel sandwich enzyme immunoassay was developed which detects breaking of AGE (Advanced glycosylation endproduct) moieties from AGE-crosslinked protein. The assay utilizes collagen-coated 96 will microtiter plates that are obtained commercially. AGE-modified protein (AGE-BSA) is incubated on the collagen-coated wells for four hours, is washed off the wells with PBS-Tween and the test compounds are added. Following an incubation period of 16 hours (37° C.) AGE-breaking is detected using an antibody raised against AGE-ribonuclease or with an antibody against BSA. […] Details of the assay are as follows:
1. AGE-BSA stock solutions were prepared as follows. Sodium phosphate buffer (0.4M) was prepared by dissolving 6 grams of monobasic sodium phosphate in 100 ml of distilled water, 7 grams of dibasic sodium phosphate (0.4M) in 100 ml of distilled water and adjusting the pH of the dibasic solution to 7.4 with the monobasic solution. Sodium azide (0.02 grams) was added per 100 ml volume to inhibit bacterial growth. The BSA solution was prepared as follows: 400 mg of Type V BSA (bovine serum albumin) was added for each ml of sodium phosphate buffer (above). A 400 mM glucose solution was prepared by dissolving […] of dextrose in 100 ml of sodium phosphate buffer (above). The BSA and glucose solutions were mixed 1:1 and incubated at 37° C. for 12 weeks. The pH of the incubation mixture was monitored weekly and adjusted to pH 7.4 if necessary. After 12 weeks, the AGE-BSA solution was dialyzed against PBS for 48 hours with four buffer changes, each at a 1:500 ratio of solution to dialysis buffer. Protein concentration was determined by the micro-Lowry method. The AGE-BSA stock solution was aliquoted and stored at −20° C.
2. Working solutions for crosslinking and breaking studies were prepared as follows. Test compounds were dissolved in PBS and the pH was adjusted to pH 7.4 if necessary. AGE-BSA stock solution was diluted in PBS to measure maximum crosslinking and in the inhibitor solution for testing inhibitory activity of compounds. The concentration of AGE-BSA necessary to achieve the optimum sensitivity was determined by initial titration of each lot of AGE-BSA.
3. Wash buffer (“PBS-Tween”) was prepared as follows. PBS was prepared by dissolving the following salts in one liter of distilled water: NaCl, 8 grams; KCl, 0.2 gram, KH2PO4. […] Tween-20 was added to a final concentration of 0.05% (vol/vol).
4. Substrates for detection of secondary antibody binding were prepared by diluting the HRP substrate buffer 1:10 in distilled water and mixing with ABTS chromogen 1:50 just prior to use.
1. Biocoat plates were blocked With 300 μl of “Superbloc”. Plates were blocked for one hour at room temperature and were washed with PBS-Tween three times with the Dynatech platewasher before addition of test reagents.
2. Each experiment was set up in the following manner.

[2] = biological target: T2, cross-linking of glycated bovine serum albumin (AGE-BSA) to the rat tail tendon collagen (Bos taurus, UniProt P02769); assay: Inhibition of cross-linking of glycated BSA (AGE-BSA) to rat tail tendon collagen coated 96-well plate (ELISA); assay type: biochemical
T2 construct: glycated bovine serum albumin (AGE-BSA); from tissue; host or cells: collagen from rat tail tendon; BSA from bovine serum, glycated in house
Protocol: The cross-linked AGE-BSA to the tail tendon coated plate was then quantitated by the polyclonal antibody raised against AGE-RNase.
The % inhibition of each test compound was calculated as follows.

[3] = tested on: immunoglobulin trapping in the kidney; settings: in vivo; cited from earlier work
[4] = tested on: aortic wall protein cross-linking in diabetic rats; settings: cited from earlier work
red blood cells = settings: in vivo; cited from earlier work
[5] = read-out: % Inhibition Anti-AGE (at mM)
[6] = read-out: % Inhibition Anti-BSA (at mM)
[7] = detection with anti-AGE-RNase antibody, read-out: IC50 (mM) Anti-AGE
[8] = detection with anti-BSA antibody, read-out: IC50 (mM) Anti-BSA

T1 sequence (P02769 25-607): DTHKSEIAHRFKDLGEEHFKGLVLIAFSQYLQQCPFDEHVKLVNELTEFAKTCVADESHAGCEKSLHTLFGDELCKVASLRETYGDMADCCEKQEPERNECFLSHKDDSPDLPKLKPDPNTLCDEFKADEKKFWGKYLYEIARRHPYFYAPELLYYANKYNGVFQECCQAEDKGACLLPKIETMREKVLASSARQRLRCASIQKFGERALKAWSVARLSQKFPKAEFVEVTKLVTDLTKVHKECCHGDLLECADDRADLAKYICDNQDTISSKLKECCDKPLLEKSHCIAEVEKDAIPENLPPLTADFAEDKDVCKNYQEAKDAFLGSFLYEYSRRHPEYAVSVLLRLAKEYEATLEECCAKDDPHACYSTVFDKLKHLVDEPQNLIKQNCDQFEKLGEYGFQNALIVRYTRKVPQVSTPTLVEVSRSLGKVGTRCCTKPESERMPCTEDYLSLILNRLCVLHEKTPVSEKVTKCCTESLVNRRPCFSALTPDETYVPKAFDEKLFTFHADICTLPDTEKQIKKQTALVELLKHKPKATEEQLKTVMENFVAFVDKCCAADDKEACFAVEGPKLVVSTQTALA
T1 sequence (P02454 152-1207 partner limits assumed): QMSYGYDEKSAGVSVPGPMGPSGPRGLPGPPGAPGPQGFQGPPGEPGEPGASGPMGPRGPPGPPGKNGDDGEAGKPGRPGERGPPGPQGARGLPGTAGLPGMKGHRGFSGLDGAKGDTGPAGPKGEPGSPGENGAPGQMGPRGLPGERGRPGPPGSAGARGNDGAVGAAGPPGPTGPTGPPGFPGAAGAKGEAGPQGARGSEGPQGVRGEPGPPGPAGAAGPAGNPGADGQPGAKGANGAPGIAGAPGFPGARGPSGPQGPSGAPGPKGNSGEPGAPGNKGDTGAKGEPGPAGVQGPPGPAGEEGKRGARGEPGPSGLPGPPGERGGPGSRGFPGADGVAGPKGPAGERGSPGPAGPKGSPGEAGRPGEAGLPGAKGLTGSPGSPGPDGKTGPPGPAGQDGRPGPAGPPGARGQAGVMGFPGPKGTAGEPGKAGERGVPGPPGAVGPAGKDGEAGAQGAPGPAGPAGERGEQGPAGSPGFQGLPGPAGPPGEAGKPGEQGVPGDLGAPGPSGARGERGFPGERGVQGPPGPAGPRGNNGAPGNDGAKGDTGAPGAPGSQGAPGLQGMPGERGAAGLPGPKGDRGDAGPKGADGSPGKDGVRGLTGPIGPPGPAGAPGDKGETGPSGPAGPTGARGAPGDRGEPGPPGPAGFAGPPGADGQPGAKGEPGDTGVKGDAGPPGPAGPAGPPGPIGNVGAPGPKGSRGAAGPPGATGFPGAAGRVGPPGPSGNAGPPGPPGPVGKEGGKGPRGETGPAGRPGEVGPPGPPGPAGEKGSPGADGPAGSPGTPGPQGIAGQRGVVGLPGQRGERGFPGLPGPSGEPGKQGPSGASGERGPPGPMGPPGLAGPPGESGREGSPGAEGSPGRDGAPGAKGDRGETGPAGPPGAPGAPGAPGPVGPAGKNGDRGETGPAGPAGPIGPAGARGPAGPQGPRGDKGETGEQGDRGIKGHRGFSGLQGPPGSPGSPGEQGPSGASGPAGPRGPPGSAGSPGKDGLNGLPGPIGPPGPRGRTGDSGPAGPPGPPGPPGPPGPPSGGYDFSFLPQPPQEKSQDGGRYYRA
T1 sequence (P02466 86-1125 partner limits assumed): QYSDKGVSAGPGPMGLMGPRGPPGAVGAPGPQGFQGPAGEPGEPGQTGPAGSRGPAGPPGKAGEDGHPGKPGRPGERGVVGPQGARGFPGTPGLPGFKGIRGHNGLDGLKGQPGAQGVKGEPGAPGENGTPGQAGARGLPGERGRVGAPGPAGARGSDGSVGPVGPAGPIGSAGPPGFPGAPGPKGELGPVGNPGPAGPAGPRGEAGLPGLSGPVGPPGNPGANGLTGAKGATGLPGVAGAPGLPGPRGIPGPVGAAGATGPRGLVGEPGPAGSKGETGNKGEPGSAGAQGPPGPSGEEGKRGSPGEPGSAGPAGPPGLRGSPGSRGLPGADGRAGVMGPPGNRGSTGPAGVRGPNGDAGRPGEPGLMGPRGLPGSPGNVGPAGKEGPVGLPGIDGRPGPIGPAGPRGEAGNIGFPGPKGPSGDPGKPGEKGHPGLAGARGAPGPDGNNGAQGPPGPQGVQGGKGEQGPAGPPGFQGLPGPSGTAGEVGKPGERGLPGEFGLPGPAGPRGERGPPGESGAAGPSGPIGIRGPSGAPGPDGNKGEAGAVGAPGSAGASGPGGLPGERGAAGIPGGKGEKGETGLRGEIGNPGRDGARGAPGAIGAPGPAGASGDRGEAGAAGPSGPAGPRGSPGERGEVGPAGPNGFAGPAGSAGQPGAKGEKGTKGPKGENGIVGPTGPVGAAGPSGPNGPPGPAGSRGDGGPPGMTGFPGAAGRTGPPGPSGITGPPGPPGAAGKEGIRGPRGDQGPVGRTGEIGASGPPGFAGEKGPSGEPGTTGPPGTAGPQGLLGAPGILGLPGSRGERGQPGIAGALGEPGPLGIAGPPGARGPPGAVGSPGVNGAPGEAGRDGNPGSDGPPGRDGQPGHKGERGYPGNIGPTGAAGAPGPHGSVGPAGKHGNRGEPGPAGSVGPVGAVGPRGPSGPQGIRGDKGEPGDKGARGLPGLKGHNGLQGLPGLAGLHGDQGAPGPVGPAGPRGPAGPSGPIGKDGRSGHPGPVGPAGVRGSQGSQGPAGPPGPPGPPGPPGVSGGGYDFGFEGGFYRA
T2 sequence (P02769 25-607): as the sequence (P02769 25-607) above

SMILES: CC[n+]1csc(CCO)c1C.[Br-]
- melting point: 84 to 85 °C

SMILES: O=C(C[n+]1csc2ccccc21)c1ccccc1.[Br-]
- melting point: 240 to 241 °C (dec.)

SMILES: COC(=O)C[n+]1csc(CCOC(C)=O)c1C.[Br-]
- melting point: 217 to 218 °C

SMILES: CC(=O)OCCc1sc[n+](CC(N)=O)c1C.[Br-]
- melting point: 233 to 234 °C

SMILES: COC(=O)C[n+]1ccsc1N.[Br-]
- melting point: 191 to 192 °C

SMILES: COC(=O)C[n+]1c(N)sc2ccccc21.[Br-]
- melting point: 236 to 237 °C

SMILES: NC(=O)C[n+]1ccsc1N.[Br-]
- melting point: 209 to 210 °C

SMILES: NC(=O)C[n+]1c(N)sc2ccccc21.[Br-]
- melting point: 234 to 235 °C

SMILES: Cc1c(CCO)sc[n+]1CC(=O)c1ccc(Br)cc1 (as salt: bromide) [3-(2-[4^1-bromophenyl]-2-oxoethyl)-4-methyl-5-(2-hydroxyethyl)thiazolium bromide]
- melting point: 251 to 252 °C (dec.)

SMILES: Nc1sc2ccccc2[n+]1N [2,3-diamino-benzothiazolium mesitylenesulfonate]
- inhibition at 30000 µM ([1]; at 30 mM, detection with anti-AGE-RNase antibody, read-out: % Inhibition Anti-AGE (at mM)): 75%
- inhibition at 30000 µM ([1]; at 30 mM, detection with anti-BSA antibody, read-out: % Inhibition Anti-BSA (at mM)): 35%
- melting point: 212 to 214 °C (dec.)
- IC50 [2]: 74.9 µM

SMILES: COC(=O)C[n+]1ccsc1 [3-(2-Methoxy-2-oxoethyl)thiazolium bromide]
- inhibition at 30000 µM [1, 5]: 38%
- inhibition at 30000 µM [1, 6]: 41%
- IC50 [2]: 138 µM

SMILES: Cc1sc[n+](CC(=O)c2ccc(Br)cc2)c1C [3-(2-[4^1-bromophenyl]-2-oxoethyl)-4,5-dimethylthiazolium bromide]
- IC50 [2]: 2920 µM

SMILES: Cc1c(CCO)sc[n+]1CC(=O)c1ccc(Br)cc1 [3-(2-[4^1-bromophenyl]-2-oxoethyl)-4-methyl-5-(2-hydroxyethyl)thiazolium bromide]
- IC50 [2]: 4510 µM

SMILES: O=C(C[n+]1ccsc1)c1ccc(Br)cc1.[Br-] [3-(2-[4^1-bromophenyl]-2-oxoethyl)-thiazolium bromide]
- % Inhibition Anti-AGE (at mM) ([1]; at 30 mM, detection with anti-AGE-RNase antibody): 76%
- % Inhibition Anti-BSA (at mM) ([1]; at 30 mM, detection with anti-BSA antibody): 25%

SMILES: Cc1sc[n+](CC(N)=O)c1C.[Br-] [3-(2-amino-2-oxoethyl)-4,5-dimethyl-thiazolium bromide]
- inhibition at 30000 µM [1, 5]: 69%
- inhibition at 30000 µM [1, 6]: 75%
- melting point: 147 to 148 °C
- IC50 [2]: 338 µM

SMILES: Cc1c(CCO)sc[n+]1CC(N)=O [3-(2-amino-2-oxoethyl)-4-methyl-5-(2-hydroxyethyl)thiazolium bromide]
- IC50 [1, 7]: 12 µM
- IC50 [1, 8]: 120 µM
- IC50 [2]: 1260 µM

SMILES: Cc1csc[n+]1CC(N)=O [3-(2-amino-2-oxoethyl)-4-methyl-thiazolium bromide]
- IC50 [1, 7]: 4700 µM
- IC50 [1, 8]: 38600 µM
- IC50 [2]: 116 µM

SMILES: Cc1c[n+](CC(N)=O)cs1.[Br-] [3-(2-amino-2-oxoethyl)-5-methyl-thiazolium bromide]
- melting point: 179 to 180 °C
- IC50 [2]: 28.9 µM

SMILES: NC(=O)C[n+]1csc2ccccc21.[Br-] [3-(2-amino-2-oxoethyl)-benzothiazolium bromide]
- IC50 [1, 7]: 140 µM
- IC50 [1, 8]: 520 µM
- melting point: 222 to 223 °C
- IC50 [2]: 618 µM

SMILES: NC(=O)C[n+]1ccsc1.[Br-] [3-(2-amino-2-oxoethyl)thiazolium bromide, 3-(2-amino-2-oxoethyl)-thiazolium bromide]
- melting point: 205 to 206 °C
- IC50 [2]: 226 µM

SMILES: COC(=O)C[n+]1csc(C)c1C [3-(2-methoxy-2-oxoethyl)-4,5-dimethylthiazolium bromide]
- inhibition at 30000 µM [1, 5]: 50%
- inhibition at 30000 µM [1, 6]: 30%
- IC50 [2]: 138 µM

SMILES: COC(=O)C[n+]1csc(CCO)c1C.[Br-] [3-(2-methoxy-2-oxoethyl)-4-methyl-5-(2-hydroxyethyl)-thiazolium bromide]
- melting point: 137 to 138 °C

SMILES: COC(=O)C[n+]1cscc1C.[Br-] [3-(2-methoxy-2-oxoethyl)-4-methylthiazolium bromide]
- inhibition at 30000 µM [1, 5]: 54%
- inhibition at 30000 µM [1, 6]: 41%
- melting point: 149 to 151 °C (dec.)

SMILES: COC(=O)C[n+]1csc(C)c1.[Br-] [3-(2-methoxy-2-oxoethyl)-5-methyl-thiazolium bromide]
- inhibition at 30000 µM [1, 5]: 72%
- inhibition at 30000 µM [1, 6]: 27%
- melting point: 193 to 194 °C (dec.)
- IC50 [2]: 73 µM

SMILES: COC(=O)C[n+]1csc2ccccc21 [3-(2-methoxy-2-oxoethyl)-benzothiazolium bromide]
- IC50 [1, 7]: 1200 µM
- IC50 [1, 8]: 25900 µM

SMILES: CC(=O)C[n+]1ccsc1.[Cl-] [3-(2-methyl-2-oxoethyl)thiazolium chloride]
- IC50 ([1]; IC50 (mM) Anti-AGE, detection with anti-AGE-RNase antibody): 0.036 µM
- IC50 ([1]; IC50 (mM) Anti-BSA, detection with anti-BSA antibody): 260 µM
- melting point: 178 to 179 °C

SMILES: Cc1sc[n+](CC(=O)c2ccccc2)c1C [3-(2-phenyl-2-oxoethyl)-4,5-dimethylthiazolium bromide]
- inhibition at 30000 µM [1, 5]: 56%
- IC50 [2]: 48500 µM

SMILES: Cc1c(CCO)sc[n+]1CC(=O)c1ccccc1 [3-(2-phenyl-2-oxoethyl)-4-methyl-5-(2-hydroxyethyl)-thiazolium bromide]
- IC50 [1, 7]: 14300 µM

SMILES: Cc1csc[n+]1CC(=O)c1ccccc1.[Br-] [3-(2-phenyl-2-oxoethyl)-4-methylthiazolium bromide]
- IC50 [1, 7]: 230 µM
- IC50 [1, 8]: 300 µM
- melting point: 218 to 220 °C (dec.)
- IC50 [2]: 10300 µM

SMILES: Cc1c[n+](CC(=O)c2ccccc2)cs1 [3-(2-phenyl-2-oxoethyl)-5-methyl-thiazolium bromide]
- IC50 [2]: 13900 µM

SMILES: O=C(C[n+]1ccsc1)c1ccccc1 [3-(2-phenyl-2-oxoethyl)thiazolium bromide]
- IC50 [1, 7]: 20 µM
- IC50 [1, 8]: 14 µM

SMILES: O=C(O)C[n+]1csc2ccccc21.[Br-] [3-(carboxymethyl)benzothiazolium bromide, 3-(carboxymethyl)-benzothiazolium bromide]
- inhibition at 30000 µM [1, 5]: 63.7%
- inhibition at 30000 µM [1, 6]: 17.9%
- melting point: 250 °C (dec.)

SMILES: Cc1c(CCO)sc[n+]1Cc1ccccc1.[Cl-] [3-benzyl-5-(2-hydroxyethyl)-4-methyl thiazolium chloride]
- IC50 [1, 7]: 420 µM
- IC50 [1, 8]: 550 µM
- melting point: 144 to 146 °C

SMILES: N=C(N)NN [aminoguanidine]
- immunoglobulin trapping in the kidney [3]: reduction of immunoglobulin trapping in the kidney
- aortic wall protein cross-linking [4]: diminishes aortic wall protein cross-linking
- diabetes-induced changes in the deformability of red blood cells (red blood cells): has been shown to prevent it in vivo
